{
  "source": "patent EP1538162B1",
  "about": "“Compositions for altering mucus secretion” (NORTH CAROLINA STATE UNIVERSITY, priority 1999, dated 2000)",
  "key": {"MARCKS": {"system": "MARCKS", "experiment": "Phosphorylation state of MARCKS in airway epithelial cells", "type": "cell-based, human", "method": "To detect MARCKS protein in these cells, cells were labeled with ^3H-myristic acid (as MARCKS is myristoylated) for 16 hours in media. Cells were lysed, and MARCKS protein was immunoprecipitated according to the method of Spizz & Blackshear (J Biol Chem 271:553, 1996) using monoclonal antibody 2F12 (a gift from the Blackshear laboratory).\n(§1) Phosphorylation of MARCKS by PMA was attenuated by Calphostin C (500 nM). NHBE cells also contained substantial amounts of cGMP-dependent protein kinase type 1α (PKG-1α) activity, which was localized to the cytosolic fraction. […] In addition, the phosphorylation of MARCKS induced by PMA was reversed by incubation with 8-Br-cGMP (10 µM)."}, "[1]": {"system": "normal human bronchial epithelial (NHBE) cells", "experiment": "UTP-induced mucin secretion, air-liquid interface culture, mucus ELISA", "type": "cell-based", "settings": "for mucin secretion in cells stimulated by secretagogues: general statement, Example 9: 15 min pre-incubation, UTP 0.1 mM 2 hours, 500 nM calphostin C, 10 µM Rp-8-Br-PET-cGMP, 50 µM LY83583", "method": "(§2) Cell Culture System: Expansion and cryopreservation. Primary normal human bronchial epithelial (NHBE) cells (Clonetics, San Diego, CA) were seeded into vented T75 tissue culture flasks (500 cells/cm^2) in bronchial epithelial basal medium (BEBM; Clonetics, San Diego, CA) containing 25 ng/ml human recombinant epidermal growth factor (EGF; Intergen, Purchase, NY), 65 ng/ml bovine pituitary extract (prepared by the methods of Bertolero et al. Exp Cell Res 155:64, 1984), 5 x 10^-8M all-trans retinoic acid, 1.5µg/ml bovine serum albumin (Intergen, Purchase, NY), 20 IU/ml nystatin (Gibco, Grand Island, NY), 0.5µg/ml hydrocortisone, 5µg/ml insulin, 10µg/ml transferrin, 0.5µg/ml epinephrine, 6.5ng/ml triiodothyronine, 50µg/ml gentamicin, and 50µg/ml amphotericin-B (Clonetics; San Diego, CA). Once confluent, cultures were dissociated with trypsin/EDTA and frozen as passage-2 according to the methods of Clonetics Corporation.\nAir-liquid interface culture of NHBE cells. Following the expansion, NHBE cells were cultured in air/liquid interface according to the methods of Gray and coworkers with minor modifications (Gray et al. Am J Respir Cell Mol Biol 14:104, 1996). The air-liquid interface culture was initiated by seeding NHBE cells (passage-2, 2x10^4 cells/cm^2) on Transwell-clear culture inserts (24.5 mm, 0.45 µm pore size; Costar, Cambridge, MA) that were thin coated with rat tail collagen, type I (Collaborative Research, Bedford, MA). Cells were cultured submerged to 70% confluency (5-7 days) in a 1:1 mixture of bronchial epithelial cell growth medium (Clonetics, San Diego, CA):Dulbecco's modified Eagles medium with high glucose (BEGM:DMEM-H), containing the same supplements as described above with the exception of EGF (0.5 ng/ml). When cultures were 70% confluent, the air-liquid interface was created by removing the apical medium, and the basal medium (BEGM:DMEM-H) was changed daily thereafter. Cells were then cultured for an additional 14 days in air-liquid interface, a total of 21 days in culture.\n(§3) Mucus ELISA: Mucus secreted from the airway epithelial cells in vitro after stimulation by activators was assessed using an ELISA (antibody capture method) (E. Harlow, D. Lane. \"Antibodies: A Laboratory Manual.\" New York: Cold Spring Harbor Laboratory Press, 1988), wherein the collected mucus is bound directly to the ELISA plate. Mucus was detected using an antibody raised against monkey airway mucus (Lin et al. Am J Respir Cell Mol Biol 1:41, 1989). […]\nNHBE cells were pre-incubated with the indicated inhibitor for 15 min, then stimulated with UTP (0.1mM) for 2 hours. Secreted mucin in the apical medium was collected and assayed by ELISA."}, "[2]": {"system": "normal human bronchial epithelial (NHBE) cells", "experiment": "Mucin secretion stimulated by PMA + 8-Br-cGMP, air-liquid interface culture, mucus ELISA", "type": "cell-based", "settings": "500nM, pre-incubated 15 min; PMA (100 nM) + 8-Br-cGMP (1µM) for 15 min", "method": "as §2, with “Corporation. […]” for “Corporation.”\nas §3"}, "[3]": {"biological_target": "T1, cGMP-dependent protein kinase type 1α (PKG-1α) (Homo sapiens, UniProt Q13976)", "T1 construct": "NHBE cells also contained substantial amounts of cGMP-dependent protein kinase type 1α (PKG-1α) activity; endogenous in cells; host or cells: primary normal human bronchial epithelial (NHBE) cells, Clonetics", "T1 sequence (Q13976 1-671)": "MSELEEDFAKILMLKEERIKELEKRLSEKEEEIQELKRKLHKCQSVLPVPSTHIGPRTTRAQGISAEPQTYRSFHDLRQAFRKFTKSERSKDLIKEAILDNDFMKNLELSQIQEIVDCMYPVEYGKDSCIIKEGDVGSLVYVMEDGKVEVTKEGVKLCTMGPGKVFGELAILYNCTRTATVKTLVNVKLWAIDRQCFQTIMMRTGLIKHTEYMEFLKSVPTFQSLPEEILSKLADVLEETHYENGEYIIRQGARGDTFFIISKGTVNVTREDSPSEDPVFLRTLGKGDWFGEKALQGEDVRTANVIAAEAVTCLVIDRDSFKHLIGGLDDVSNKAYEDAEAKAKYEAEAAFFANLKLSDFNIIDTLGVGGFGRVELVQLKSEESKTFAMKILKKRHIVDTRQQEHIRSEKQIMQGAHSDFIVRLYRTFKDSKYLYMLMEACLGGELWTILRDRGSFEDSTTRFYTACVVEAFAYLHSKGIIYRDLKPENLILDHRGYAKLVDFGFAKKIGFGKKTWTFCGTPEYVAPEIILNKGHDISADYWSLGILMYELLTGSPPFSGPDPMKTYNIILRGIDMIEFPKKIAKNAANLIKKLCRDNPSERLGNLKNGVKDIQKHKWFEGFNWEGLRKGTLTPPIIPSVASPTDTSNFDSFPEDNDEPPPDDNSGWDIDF", "experiment": "PKG activity in NHBE cells", "type": "cell-based", "settings": "100 µM", "method": "as §1"}},
  "data": [
    {"compound": "Nc1nc2c(nc(Br)n2[C@@H]2O[C@@H]3COP(=O)(O)O[C@H]3[C@H]2O)c(=O)[nH]1", "note": "[8-Br-cGMP, 8-bromo-cGMP]", "values": [
      {"measurement": "phosphorylation of MARCKS induced by PMA", "setting": "MARCKS; 10 µM", "value": "reversed"}
    ]},
    {"compound": "O=C1C(Nc2ccccc2)=CC(=O)c2ncccc21", "note": "[LY83585]", "values": [
      {"measurement": "mucin secretion in cells stimulated by secretagogues", "setting": "[1]", "value": "inhibit mucin secretion"}
    ]},
    {"compound": "CCCCCCCCCCCCCC(=O)O[C@@H]1[C@@H](C)[C@@]2(O)[C@@H](C=C(CO)C[C@]3(O)C(=O)C(C)=C[C@@H]23)[C@@H]2C(C)(C)[C@]12OC(C)=O", "note": "[PMA, phorbol 12-myristate 13-acetate]", "values": [
      {"measurement": "phosphorylation of MARCKS", "setting": "MARCKS; PMA 100 nM, concentration of 4α-PMA not given", "value": "phosphorylated"}
    ]},
    {"compound": "O=c1c2nc(Br)n(C3OC4COP(=O)(S)OC4C3O)c2nc2[nH]c(-c3ccccc3)cn12", "note": "(centres unmarked) [Rp-8-Br-PET-cGMP]", "values": [
      {"measurement": "mucin secretion in cells stimulated by secretagogues", "setting": "[1]", "value": "inhibit mucin secretion"}
    ]},
    {"compound": "C=C1[C@@H](O)[C@@H]2O[C@]3(CC[C@H](/C=C/[C@@H](C)[C@@H]4CC(C)=C[C@@]5(O[C@H](C[C@@](C)(O)C(=O)O)CC[C@H]5O)O4)O3)CC[C@H]2O[C@@H]1[C@@H](O)C[C@H](C)[C@H]1O[C@@]2(CCCCO2)CC[C@H]1C", "note": "[okadaic acid]", "values": [
      {"measurement": "mucin hypersecretion induced by UTP", "setting": "[1]; 500nM, pre-incubated 15 min, UTP (0.1 mM) for 2 hours", "value": "blocks mucin hypersecretion"},
      {"measurement": "mucin secretion in cells stimulated by secretagogues", "setting": "[1]", "value": "inhibit mucin secretion"},
      {"measurement": "mucin hypersecretion induced by PMA + 8-Br-cGMP", "setting": "[2]", "value": "blocks mucin hypersecretion"},
      {"measurement": "reversal by 8-Br-cGMP of PMA-induced phosphorylation of MARCKS", "setting": "MARCKS; 500 nM", "value": "inhibited this effect"}
    ]},
    {"compound": "calphostin C", "values": [
      {"measurement": "mucin secretion in cells stimulated by secretagogues", "setting": "[1]", "value": "inhibit mucin secretion"},
      {"measurement": "phosphorylation of MARCKS by PMA", "setting": "MARCKS; 500 nM", "value": "attenuated"}
    ]},
    {"compound": "dibutyryl cGMP", "values": [
      {"measurement": "constitutive PKG activity", "setting": "[3]", "value": "increased"}
    ]}
  ]
}
